Results: US10682319B2, “Necrosis inhibitors” (National Institute of Biological Sciences, Beijing, priority 2014, dated 2020)

The molecules below were run on HT-29 cells (assay: Necrosis assay (TNF-α/Smac mimetic/z-VAD induced necrosis, cell viability by ATP level)). Settings: HT-29, TNF-α + Smac mimetic + z-VAD, 24 hrs, ATP level; values given as ranges in nM; read-out: EC50 (inhibition of necrosis in HT-29 cells).
Type: cell-based
Protocol: HT-29 cells were cultured in McCoy's 5 A culture medium (Invitrogen). On day one, HT-29 cells were plated in 96-well assay plates at density of 2,500-3,500 cells per well. On day two, necrosis were induced by adding 20 ng/ml TNF-α (T), 100 nM Smac mimetic (S), and […] z-VAD (Z). At the same time, […] compound from a chemical library of ˜200,000 compounds was delivered into each well. After 24 hrs treatment, cell viability was determined by measuring ATP level using the CellTiter-Glo Luminescent Cell Viability Assay kit. A CellTiter-Glo Assay (Promega) was performed according to the manufacturer's instructions Luminescence was recorded with a PerkinElmer EnSpire Multimode Plate Reader. Survived cells were normalized to those cells treated with DMSO. Nec-1 was used as a positive control for screening necrosis inhibitors. Data are represented as mean±standard deviation of duplicates
Dose-dependent inhibition of necrosis by the compounds in HT-29 cells were determined by measuring ATP levels as described above.

Structure (SMILES)	EC50 [nM]
CCC(C)(C)C(=O)N(C)Cc1ccccc1F [Compound 13, N-(2-fluorobenzyl)-N,2,2-trimethylbutanamide]	1 to 1000
CCC(C)(C)C(=O)N(C)Cc1cccc(C#N)c1 [Compound 17, N-(3-cyanobenzyl)-N,2,2-trimethylbutanamide]	1 to 1000
CCC(C)(C)C(=O)N(C)Cc1cccc(Cl)c1 [Compound 18, N-(3-chlorobenzyl)-N,2,2-trimethylbutanamide]	1 to 1000
CCC(C)(C)C(=O)N(C)Cc1ccc(F)cc1F [Compound 24, N-(2,4-difluorobenzyl)-N,2,2-trimethylbutanamide]	1 to 1000
CCC(C)(C)C(=O)N(C)Cc1cc(F)ccc1F [Compound 25, N-(2,5-difluorobenzyl)-N,2,2-trimethylbutanamide]	1 to 1000
CCC(C)(C)C(=O)N(C)Cc1cc(F)cc(F)c1 [Compound 26, N-(3,5-difluorobenzyl)-N,2,2-trimethylbutanamide]	1 to 1000
CCC(C)(C)C(=O)N(C)Cc1ccc(Cl)cc1F [Compound 27, N-(4-chloro-2-fluorobenzyl)-N,2,2-trimethylbutanamide]	1 to 1000
CCC(C)(C)C(=O)N(C)Cc1ccc(OC)cc1F [Compound 28, N-(2-fluoro-4-methoxybenzyl)-N,2,2-trimethylbutanamide]	1 to 1000
CCC(C)(C)C(=O)N(C)CC1CCCCC1 [Compound 39, N-(cyclohexylmethyl)-N,2,2-trimethylbutanamide]	1 to 1000
CCC(C)(C)C(=O)N(C)Cc1cccs1 [Compound 40, N,2,2-trimethyl-N-(thiophen-2-ylmethyl)butanamide]	1 to 1000
CCC(C)(C)C(=O)N(C)Cc1ccc(C)s1 [Compound 42, N,2,2-trimethyl-N-((5-methylthiophen-2-yl)methyl)butanamide]	1 to 1000
CCC(C)(C)C(=O)N(C)Cc1ccco1 [Compound 43, N-(furan-2-ylmethyl)-N,2,2-trimethylbutanamide]	1 to 1000

Same assay, conditions: Homo sapiens, HT-29, 24 h, HT-29, TNF-α + Smac mimetic + z-VAD, 24 hrs, ATP level; values given as ranges in uM; read-out: EC50 (inhibition of necrosis in HT-29 cells)

Structure (SMILES)	EC50 [nM]
CCC(C)(C)C(=O)NCc1ccccc1F [Compound 1, N-(2-fluorobenzyl)-2,2-dimethylbutanamide]	1000 to 10000
CC(C)(C)C(=O)NCc1ccccc1 [Compound 2, N-benzylpivalamide]	1000 to 10000
CCC(C)(C)C(=O)NCc1ccccc1Br [Compound 3, N-(2-bromobenzyl)-2,2-dimethylbutanamide]	1000 to 10000
CCC(C)(C)C(=O)NCc1ccccc1C(F)(F)F [Compound 4, 2,2-dimethyl-N-(2-(trifluoromethyl)benzyl)butanamide]	1000 to 10000
CCC(C)(C)C(=O)NCc1cccc(F)c1 [Compound 5, N-(3-fluorobenzyl)-2,2-dimethylbutanamide]	1000 to 10000
CCC(C)(C)C(=O)NCc1cccc(Br)c1 [Compound 6, N-(3-bromobenzyl)-2,2-dimethylbutanamide]	1000 to 10000
CCC(C)(C)C(=O)NCc1ccc(F)cc1F [Compound 7, N-(2,4-difluorobenzyl)-2,2-dimethylbutanamide]	1000 to 10000
CCC(C)(C)C(=O)NCc1ccc(F)c(F)c1 [Compound 8, N-(3,4-difluorobenzyl)-2,2-dimethylbutanamide]	1000 to 10000
CCC(C)(C)C(=O)NCc1cccnc1 [Compound 9, 2,2-dimethyl-N-(pyridin-3-ylmethyl)butanamide]	1000 to 10000
CCN(Cc1ccccc1F)C(=O)C(C)(C)CC [Compound 10, N-ethyl-N-(2-fluorobenzyl)-2,2-dimethylbutanamide]	1000 to 10000
C#CCN(Cc1ccccc1F)C(=O)C(C)(C)CC [Compound 11, N-(2-fluorobenzyl)-2,2-dimethyl-N-(prop-2-yn-1-yl)butanamide]	1000 to 10000
CCC(C)(C)C(=O)N(CCC(C)=O)Cc1ccccc1F [Compound 12, N-(2-fluorobenzyl)-2,2-dimethyl-N-(3-oxobutyl)butanamide]	1000 to 10000
CCC(C)(C)C(=O)N(C)Cc1ccccc1OC [Compound 15, N-(2-methoxybenzyl)-N,2,2-trimethylbutanamide]	1000 to 100000
CCC(C)(C)C(=O)N(C)Cc1cccc(Br)c1 [Compound 19, N-(3-bromobenzyl)-N,2,2-trimethylbutanamide]	1000 to 10000
CCC(C)(C)C(=O)N(C)Cc1cccc(OC)c1 [Compound 20, N-(3-methoxybenzyl)-N,2,2-trimethylbutanamide]	1000 to 100000
CCC(C)(C)C(=O)N(C)Cc1cccc(O)c1 [Compound 21, N-(3-hydroxybenzyl)-N,2,2-trimethylbutanamide]	1000 to 100000

Structure (SMILES)	EC50 [nM]
CCC(C)(C)C(=O)N(C)Cc1cccc(C(=O)OC)c1 [Compound 23, methyl 3-((N,2,2-trimethylbutanamido)methyl)benzoate]	1000 to 100000
CCN(Cc1ccc(F)cc1F)C(=O)C(C)(C)CC [Compound 29, N-(2,4-difluorobenzyl)-N-ethyl-2,2-dimethylbutanamide]	1000 to 10000
CCC(C)(C)C(=O)N(C)Cc1ccc(N2CCCCC2)c([N+](=O)[O-])c1 [Compound 30, N,2,2-trimethyl-N-(3-nitro-4-(piperidin-1-yl)benzyl)butanamide]	1000 to 100000
CCC(C)(C)C(=O)N(C)Cc1cccc(C)c1C [Compound 31, N-(2,3-dimethylbenzyl)-N,2,2-trimethylbutanamide]	1000 to 100000
CCC(C)(C)C(=O)N(C)Cc1cc(C)cc(C)c1 [Compound 32, N-(3,5-dimethylbenzyl)-N,2,2-trimethylbutanamide]	1000 to 100000
CCC(C)(C)C(=O)N(C)Cc1cccc(OC(F)(F)F)c1F [Compound 33, N-(2-fluoro-3-(trifluoromethoxy)benzyl)-N,2,2-trimethylbutanamide]	1000 to 100000
CCC(C)(C)C(=O)N(C)Cc1ccncc1 [Compound 34, N,2,2-trimethyl-N-(pyridin-4-ylmethyl)butanamide]	1000 to 100000
CCC(C)(C)C(=O)N(C)Cc1cccnc1 [Compound 35, N,2,2-trimethyl-N-(pyridin-3-ylmethyl)butanamide]	1000 to 10000
CCC(C)(C)C(=O)N(C)Cc1ccncc1F [Compound 36, N-((3-fluoropyridin-4-yl)methyl)-N,2,2-trimethylbutanamide]	1000 to 100000
CCC(C)(C)C(=O)N(C)Cc1cccnc1OC [Compound 37, N-((2-methoxypyridin-3-yl)methyl)-N,2,2-trimethylbutanamide]	1000 to 100000
CCC(C)(C)C(=O)N(C)Cc1ccc(OC)nc1 [Compound 38, N-((6-methoxypyridin-3-yl)methyl)-N,2,2-trimethylbutanamide]	1000 to 100000
CCC(C)(C)C(=O)N(C)Cc1sccc1C [Compound 41, N,2,2-trimethyl-N-((3-methylthiophen-2-yl)methyl)butanamide]	1000 to 10000
CCC(C)(C)C(=O)N(C)Cc1cnc(C)s1 [Compound 44, N,2,2-trimethyl-N-((2-methylthiazol-5-yl)methyl)butanamide]	1000 to 10000
CCC(C)(C)C(=O)N(C)Cc1ccn(C)n1 [Compound 45, N,2,2-trimethyl-N-((1-methyl-1H-pyrazol-3-yl)methyl)butanamide]	1000 to 100000
CCC(C)(C)C(=O)N(C)Cc1ccc2ccccc2c1 [Compound 46, N,2,2-trimethyl-N-(naphthalen-2-ylmethyl)butanamide]	1000 to 100000
CCC(C)(C)C(=O)N(C)Cc1cnc2ccccc2c1 [Compound 47, N,2,2-trimethyl-N-(quinolin-3-ylmethyl)butanamide]	1000 to 100000
